Reference: US8987250B2 (Gilead Sciences, Inc., priority 2012, dated 2015)
Read-outs that look alike come from different tables or passages of the source.

Assays:
HIV-IIIb = assay: Test A: Antiviral Assay in MT4 Cells; type: cell-based; conditions: MT-4 cells infected with HIV-IIIb, 5 days of incubation, CellTiter-Glo, read-out: EC50
In short: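 Read-out: CellTiter-Glo chemiluminescence after 5-day incubation at 37 °C. Compounds tested as 3-fold serial dilutions (10 concentrations, quadruplicate) in RPMI 1640 with 10% FBS, on MT-4 cells pre-infected at 37 °C with HIV-IIIb at 0.004 m.o.i.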

human liver microsomes = assay: Test B: Metabolic Stability Assay with Human Liver Microsomes; type: in vitro ADME; conditions: 1 uM compound, 1 mg/mL human liver microsomal proteins, 37° C., 0-60 minutes; half-life class
From the text: Test B: Metabolic Stability Assay with Human Liver Microsomes
Effective viral suppression in the HIV infected patient requires that the antiviral drug persists in the patient's body at concentrations exceeding the minimum concentration required to inhibit viral proliferation. One of the factors controlling the drug levels after dosing is metabolic conversion. The liver is one site of drug metabolism. Approximately 60% of marketed drugs are cleared by hepatic metabolism (McGinnity D F et al. (2004) Drug Metab Dispos 32; 1247-1253). Liver microsomes are subcellular fractions which contain membrane bound drug metabolising enzymes. Human liver microsomes provide a convenient and concentrated source of the key liver metabolic enzymes (e.g., cytochromes P450, UDP-glucuronosyltransferases, and many others) and can be used to predict the metabolic stability of drug candidates (e.g., agents).
Cluster tubes containing 500 uL of 1 uM compound with 1 mg/mL human liver microsomal proteins (BD Biosciences, BD452117)/50 mM K-phosphate buffer pH7.4/NADPH regenerating system/and UDP-glucuronosyltransferase cofactors, were incubated on the Precision-2000 workstation at 37° C. for 0, 10, 25, 60 minutes. The reactions were quenched with 100 uL of 0.2% formic acid in 90% ACN; containing 50 nM of an internal standard. The samples were analyzed on LC/MS/MS instrument (Q-Trap). Metabolic stabilities in microsomal fractions and hepatocytes were determined by measuring the rate of disappearance of the compound. Data (% of parent remaining) were plotted on a semi logarithmic scale and fitted using an exponential fit.

[1] = Human immunodeficiency virus 1, IIIB, MT4, 120 h, Table 1
[2] = Human immunodeficiency virus 1, IIIB, MT4, 120 h, Table 2

Molecule	Human Microsomal stability (human liver microsomes)	EC50 (HIV-IIIb; [1]) [µM]	EC50 (HIV-IIIb; [2]) [µM]	also measured
Cc1cc2nc(-c3cccc(-c4ccc5c(cnn5C)c4)c3)sc2c(-c2ccc3c4c(ccnc24)CCO3)c1[C@H](OC(C)(C)C)C(=O)O (atropisomer, axis not shown) [Compound 163]	C (a human microsomal stability half-life of less than 150 minutes)	–	–	EC50 (HIV-IIIb; Table 1): 0.018 µM
COc1cncc(-c2cccc(-c3nc4cc(C)c([C@H](OC(C)(C)C)C(=O)O)c(-c5ccc(Cl)cc5)c4s3)c2)c1 [Compound 104, (S)-2-tert-butoxy-2-(7-(4-chlorophenyl)-2-(3-(5-methoxypyridin-3-yl)phenyl)-5-methylbenzo[d]thiazol-6-yl)acetic acid]	C (a human microsomal stability half-life of less than 150 minutes)	0.042	–	–
Cc1cc2nc(-c3cccc(-c4ccnc(Cl)c4)c3)sc2c(-c2ccc(Cl)cc2)c1[C@H](OC(C)(C)C)C(=O)O [Compound 107, (S)-2-tert-butoxy-2-(7-(4-chlorophenyl)-2-(3-(2-chloropyridin-4-yl)phenyl)-5-methylbenzo[d]thiazol-6-yl)acetic acid]	C (a human microsomal stability half-life of less than 150 minutes)	0.046	–	–
Cc1cc2nc(-c3cccc(-c4ccc5c(cnn5C)c4)c3)sc2c(-c2ccc(Cl)cc2)c1[C@H](OC(C)(C)C)C(=O)O [Compound 109, (S)-2-tert-butoxy-2-(7-(4-chlorophenyl)-5-methyl-2-(3-(1-methyl-1H-indazol-5-yl)phenyl)benzo[d]thiazol-6-yl)acetic acid]	B (a human microsomal stability half-life of less than 300 minutes but greater than or equal to 150 minutes)	0.082	–	–
Cc1cc2nc(-c3ccc4c(c3)ncn4Cc3ccccc3)sc2c(-c2ccc(Cl)cc2)c1[C@H](OC(C)(C)C)C(=O)O [Compound 285, (S)-2-(2-(1-benzyl-1H-benzo[d]imidazol-5-yl)-7-(4-chlorophenyl)-5-methylbenzo[d]thiazol-6-yl)-2-tert-butoxyacetic acid]	A (a human microsomal stability half-life of greater than or equal to 300 minutes)	–	–	–
Cc1cc2nc(-c3ccc4c(n3)c(-c3cccnc3)nn4C)sc2c(-c2ccc(Cl)cc2)c1[C@H](OC(C)(C)C)C(=O)O [Compound 496, (S)-2-tert-butoxy-2-(7-(4-chlorophenyl)-5-methyl-2-(1-methyl-3-(pyridin-3-yl)-1H-pyrazolo[4,3-b]pyridin-5-yl)benzo[d]thiazol-6-yl)acetic acid]	–	–	0.005	–
Cc1cc2nc(-c3ccc4c(c3)c(-c3cncnc3)nn4C)sc2c(-c2ccc(Cl)cc2)c1[C@H](OC(C)(C)C)C(=O)O [Compound 497, (S)-2-tert-butoxy-2-(7-(4-chlorophenyl)-5-methyl-2-(1-methyl-3-(pyrimidin-5-yl)-1H-indazol-5-yl)benzo[d]thiazol-6-yl)acetic acid]	–	–	0.004	–
Cc1cc2nc(-c3ccnc(-c4cnc5[nH]cc(C)c5c4)c3)sc2c(-c2ccc(Cl)cc2)c1[C@H](OC(C)(C)C)C(=O)O [Compound 498, (S)-2-tert-butoxy-2-(7-(4-chlorophenyl)-5-methyl-2-(2-(3-methyl-1H-pyrrolo[2,3-b]pyridin-5-yl)pyridin-4-yl)benzo[d]thiazol-6-yl)acetic acid]	–	–	0.034	–
CC(=O)N(C)c1ccc(-c2cc(-c3nc4cc(C)c([C@H](OC(C)(C)C)C(=O)O)c(-c5ccc(Cl)cc5)c4s3)ccn2)cc1 [Compound 499, (S)-2-(tert-butoxy)-2-(7-(4-chlorophenyl)-5-methyl-2-(2-(4-(N-methylacetamido)phenyl)pyridin-4-yl)benzo[d]thiazol-6-yl)acetic acid]	–	–	0.012	–
(S)-2-tert-butoxy-2-(7-(4-chlorophenyl)-2-(3-(4,4-dimethylpiperazin-1-ium-1-yl)-1-methyl-1H-indazol-5-yl)-5-methylbenzo[d]thiazol-6-yl)acetate [Compound 494]	–	–	–	EC50 (HIV-IIIb; Table 2): 2.88 µM
